Data: patent US11111242B2, “Pyrrolo[2,3-d]pyrimidinyl, pyrrolo[2,3-b]pyrazinyl and pyrrolo[2,3-d]pyridinyl acrylamides” (Pfizer Inc., priority 2013, dated 2021)

System: IL-15 induced P-STAT5 in human PBMC (total lymphocytes)
Assay: PBMC IL-15 Induced P-STAT5
Type: cell-based
Settings: Homo sapiens, PBMC, IL-15 stimulated, read-out: PBMC IL15-pSTAT5 IC50
Method: PBMC IL-15 Induced P-STAT5
Frozen human PBMC (200-250 million cells/vial) was thawed at 37° C. The cells were transferred to 10 mL warm medium in a 50-mL conical tube, and centrifuged at 1,200 RPM at room temperature for 5 min. The supernatant was aspirated. […] After adding 47 ml D-PBS (37° C.) to PBMC/FBS suspension, centrifuging at 1,200 RPM at room temperature for 5 min, and aspirating the supernatant, the cells were resuspended in 20 mL warm RPMI medium. Ninety μL of cell suspension were pipetted per well in a 96-well, deep-well, V-bottom plate, and the plate was incubated at 37° C. for 30 min. […] After adding 0.8 mL staining buffer per well, the plates were centrifuged at 1,200 RPM (Beckman GS-6R or Sorvall Legend) at room temperature for 5 min, and again the supernatant was aspirated using a 8-channel or 12-channel manifold. The plate was vortexed, and 0.35 mL 90% methanol/10% H2O (−20° C.) was added per well, and the plate incubated on ice for 20 min. After again adding 0.8 mL staining buffer per well, the plates were centrifuged at 1,200 RPM (Beckman GS-6R or Sorvall Legend) at room temperature for 5 min, and again the supernatant was aspirated using a 8-channel or 12-channel manifold, and then 0.8 mL Staining buffer was added per well. After once again adding 0.8 mL staining buffer per well, the plates were centrifuged at 1,200 RPM (Beckman GS-6R or Sorvall Legend) at room temperature for 5 min, and again the supernatant was aspirated using a 8-channel or 12-channel manifold. […] Samples of 250 μL/well were transferred to a 96-well U-bottom plate, and the FACS analysis was performed gating on total lymphocytes. Samples were analyzed using a BD Calibur™ or BD FACSCanto™ flow cytometer equipped with the BD High Throughput Sampler.

Structure (SMILES) | IC50 [nM]
C=CC(=O)N1CCC(Nc2cnc3[nH]cc(C(=O)NC4CCCC4(F)F)c3n2)CC1 (centres unmarked) [Example 234, 2-[(1-acryloylpiperidin-4-yl)amino]-N-(2,2-difluorocyclopentyl)-5H-pyrrolo[2,3-b]pyrazine-7-carboxamide] | 65.2
C=CC(=O)N[C@H]1C[C@H](Nc2cnc3[nH]cc(C(=O)NC(C)C)c3n2)C1 [Example 198, 2-{[trans-3-(acryloylamino)cyclobutyl]amino}-N-(propan-2-yl)-5H-pyrrolo[2,3-b]pyrazine-7-carboxamide] | 1170
C=CC(=O)N(C)C1CN(c2cnc3[nH]cc(C(=O)NC(C)C)c3n2)C1 [Example 187, 2-{3-[acryloyl(methyl)amino]azetidin-1-yl}-N-(propan-2-yl)-5H-pyrrolo[2,3-b]pyrazine-7-carboxamide] | 710
C=CC(=O)N1CCC[C@](C)(Nc2ncnc3[nH]ccc23)C1 [Example 70, (S)-1-(3-((7H-Pyrrolo[2,3-d]pyrimidin-4-yl)amino)-3-methylpiperidin-1-yl)prop-2-en-1-one] | 5530
C=CC(=O)N1CC(Nc2ncnc3[nH]ccc23)CCC1(C)C (centres unmarked) [Example 67, 1-(5-((7H-Pyrrolo[2,3-d]pyrimidin-4-yl)amino)-2,2-dimethylpiperidin-1-yl)prop-2-en-1-one] | 6900
C=CC(=O)N1CCC[C@@H](Nc2ncnc3[nH]cc(-c4ccc(C(=O)N(C)C)cc4)c23)C1 [Example 27, 4-(4-{[(3R)-1-acryloylpiperidin-3-yl]amino}-7H-pyrrolo[2,3-d]pyrimidin-5-yl)-N,N-dimethylbenzamide] | 1870
C=C(C(=O)N1CC[C@@H]2CCN(c3ncnc4[nH]ccc34)[C@@H]2C1)C(F)(F)F [Example 41, 1-((3aS,7aS)-1-(7H-Pyrrolo[2,3-d]pyrimidin-4-yl)hexahydro-1H-pyrrolo[2,3-c]pyridin-6(2H)-yl)-2-(trifluoromethyl)prop-2-en-1-one] | 446

Same assay, conditions: IL-15 stimulated, read-out: PBMC IL15-pSTAT5 IC50

Structure (SMILES) | IC50 [nM]
C=CC(=O)N1CCC(Oc2cnc3[nH]cc(-c4ccc(C)nc4)c3n2)CC1 [Example 214, 1-(4-{[7-(6-methylpyridin-3-yl)-5H-pyrrolo[2,3-b]pyrazin-2-yl]oxy}piperidin-1-yl)prop-2-en-1-one] | 1110
C=CC(=O)N1C[C@@H]2C(Nc3cnc4[nH]cc(C(=O)NC(C)C)c4n3)[C@@H]2C1 (stereo partly drawn) [Example 189, 2-{[(1R,5S,6s)-3-acryloyl-3-azabicyclo[3.1.0]hex-6-yl]amino}-N-(propan-2-yl)-5H-pyrrolo[2,3-b]pyrazine-7-carboxamide] | 1740
C=CC(=O)N1CCN(c2cnc3[nH]cc(C(=O)NC(C)C)c3n2)[C@H](C)C1 [Example 307, 2-[(2R)-4-acryloyl-2-methylpiperazin-1-yl]-N-(propan-2-yl)-5H-pyrrolo[2,3-b]pyrazine-7-carboxamide] | 457
C=CC(=O)N1CCC[C@@H](Nc2ncnc3[nH]cc(-c4ccc(C(=O)NC(C)C)cc4)c23)C1 [Example 29, 4-(4-{[(3R)-1-acryloylpiperidin-3-yl]amino}-7H-pyrrolo[2,3-d]pyrimidin-5-yl)-N-(propan-2-yl)benzamide] | 464
C=CC(=O)N1C[C@H](Nc2ncnc3[nH]ccc23)CC[C@@H]1C [Example 5, 1-((2S,5R)-5-((7H-pyrrolo[2,3-d]pyrimidin-4-yl)amino)-2-methylpiperidin-1-yl)prop-2-en-1-one] | 51.7
C=CC(=O)N1CCC(Nc2cnc3[nH]cc(C(=O)NCC4(O)CCCC(F)(F)C4)c3n2)CC1 (centres unmarked) [Example 249, 2-[(1-acryloylpiperidin-4-yl)amino]-N-[(3,3-difluoro-1-hydroxycyclohexyl)methyl]-5H-pyrrolo[2,3-b]pyrazine-7-carboxamide] | 2110
C=CC(=O)N1CCC(Nc2cnc3[nH]cc(C(=O)NCC4(O)CCCC4)c3n2)CC1 [Example 232, 2-[(1-acryloylpiperidin-4-yl)amino]-N-[(1-hydroxycyclopentyl)methyl]-5H-pyrrolo[2,3-b]pyrazine-7-carboxamide] | 1640
C=CC(=O)N1CCN(c2cnc3[nH]cc(C(=O)NC(C)C)c3n2)[C@@H](C)C1 [Example 297, 2-[(2S)-4-acryloyl-2-methylpiperazin-1-yl]-N-(propan-2-yl)-5H-pyrrolo[2,3-b]pyrazine-7-carboxamide] | 752
C=CC(=O)N1CCC(Oc2cnc3[nH]cc(-c4cccc(C(=O)NC)c4)c3n2)CC1 [Example 227, 3-{2-[(1-acryloylpiperidin-4-yl)oxy]-5H-pyrrolo[2,3-b]pyrazin-7-yl}-N-methylbenzamide] | 643
C=CC(=O)N1CCC(Oc2cnc3[nH]cc(C(=O)NC(C)(C)C)c3n2)CC1 [Example 338, 2-((1-Acryloylpiperidin-4-yl)oxy)-N-(tert-butyl)-5H-pyrrolo[2,3-b]pyrazine-7-carboxamide] | 480
C=CC(=O)N1CCN(c2cnc3[nH]cc(C(=O)NC(C)C)c3n2)[C@H](CC)C1 [Example 321, 2-[(2R)-4-acryloyl-2-ethylpiperazin-1-yl]-N-(propan-2-yl)-5H-pyrrolo[2,3-b]pyrazine-7-carboxamide] | 415
C=CC(=O)N1CCC(Nc2cnc3[nH]cc(C(=O)N4CCC4)c3n2)CC1 [Example 284, 1-(4-{[7-(azetidin-1-ylcarbonyl)-5H-pyrrolo[2,3-b]pyrazin-2-yl]amino}piperidin-1-yl)prop-2-en-1-one] | 2790
C=CC(=O)N1CCC(Nc2cnc3[nH]cc(-c4ccncc4F)c3n2)CC1 [Example 200, 1-(4-{[7-(3-fluoropyridin-4-yl)-5H-pyrrolo[2,3-b]pyrazin-2-yl]amino}piperidin-1-yl)prop-2-en-1-one] | 819
C=CC(=O)N1CCC(Nc2cnc3[nH]cc(C(=O)NCC4(O)CCC(F)(F)CC4)c3n2)CC1 [Example 252b, 2-[(1-acryloylpiperidin-4-yl)amino]-N-[(4,4-difluoro-1-hydroxycyclohexyl)methyl]-5H-pyrrolo[2,3-b]pyrazine-7-carboxamide] | 2470
C=CC(=O)N1CCC(Oc2cnc3[nH]cc(-c4cncc(C#N)c4)c3n2)CC1 [Example 225, 5-{2-[(1-acryloylpiperidin-4-yl)oxy]-5H-pyrrolo[2,3-b]pyrazin-7-yl}pyridine-3-carbonitrile] | 2910
C=CC(=O)N1CCC(Nc2cnc3[nH]cc(C(=O)NCC4(O)CCCC[C@@H]4F)c3n2)CC1 (stereo partly drawn) [Example 254, 2-[(1-acryloylpiperidin-4-yl)amino]-N-{[(2S)-2-fluoro-1-hydroxycyclohexyl]methyl}-5H-pyrrolo[2,3-b]pyrazine-7-carboxamide] | 836
C=CC(=O)N1CCC[C@@H](Nc2ncnc3[nH]cc(-c4cncc(OC)c4)c23)C1 [Example 24, 1-[(3R)-3-{[5-(5-methoxypyridin-3-yl)-7H-pyrrolo[2,3-d]pyrimidin-4-yl]amino}piperidin-1-yl]prop-2-en-1-one] | 320
C=CC(=O)N1CCC(Nc2cnc3[nH]cc(C(=O)NCC4(O)CCCC[C@H]4F)c3n2)CC1 (stereo partly drawn) [Example 250, 2-[(1-acryloylpiperidin-4-yl)amino]-N-{[(2R)-2-fluoro-1-hydroxycyclohexyl]methyl}-5H-pyrrolo[2,3-b]pyrazine-7-carboxamide] | 4120
C=CC(=O)N1C[C@H](C)C[C@@H](Nc2ncnc3[nH]ccc23)C1 (racemic) [Example 65, Rac-1-((3R,5R)-3-((7H-Pyrrolo[2,3-d]pyrimidin-4-yl)amino)-5-methylpiperidin-1-yl)prop-2-en-1-one] | 3740
